Reference: patent publication US20250154105A1, “POLYCYCLIC COMPOUND AND USE THEREOF” (TYK MEDICINES, INC., priority 2021, published 2025)

Tests used:
YAP-TEAD = YAP-TEAD inhibitor activity by Nano luciferase method (8xGTiiC-nLuc reporter in 293T cells); type: cell-based; details: Homo sapiens, HEK-293T, 48 hours incubation, read-out: Nano-luciferase detection (IC50)
Procedure, shortened: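 IC50 derived from nLuc reporter signal normalised to 0 nM wells, after 48 h, 37 °C compound exposure (1:3.16 series, highest 10,000 nM). Cells: 293T transfected with 8xGTiiC-nLuc/CMV-fLuc plasmid, plated at 2000 per well.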

[1] = test system: human pleural mesothelioma cells NCI-H226; test: Cell anti-proliferation experiment (CCK8), NCI-H226; type: cell-based
Procedure, shortened: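 Viability was measured by CCK-8 (3 h, A450) after 3-day treatment with 0.15–333.33 nM compound in 0.1% DMSO medium. Curve-fitted IC50 was based on viability normalised to no-drug and cell-free controls.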

Row | Structure (SMILES) | IC50 (YAP-TEAD) | IC50 [1]
1 | C[C@H](NC(=O)c1ccc2c(c1)c1cc(C#N)ccc1c(=O)n2-c1ccc(C(F)(F)F)cc1)c1ccccn1 [Example T-319] | ≤ 1000 nM | ≤ 1000 nM
2 | CNS(=O)(=O)c1ccc2c(c1)-c1ncn(CCOC)c1CN2c1ccc(C(F)(F)F)cc1 [Example T-39] | ≤ 1000 nM | ≤ 1000 nM
3 | Cc1cc(=O)n(-c2ccc(C(F)(F)F)cc2)c2ncc(C(=O)N[C@@H](C)c3ccccn3)cc12 [Example T-458] | ≤ 1000 nM | ≤ 1000 nM
4 | C[C@H](NC(=O)c1ccc2c(c1)c1ccnnc1c(=O)n2-c1ccc(C(F)(F)F)cc1)c1ccccn1 [Example T-336] | ≤ 1000 nM | ≤ 1000 nM
5 | C[C@H](NC(=O)c1ccc2c(c1)c1cnccc1c(=O)n2-c1ccc(C(F)(F)F)cc1)c1cccc(N)n1 [Example T-434] | ≤ 1000 nM | ≤ 1000 nM
6 | CNS(=O)(=O)c1ccc2c(c1)c1ncn(C)c1c(=O)n2-c1ccc(C(F)(F)F)cc1 [Example T-15] | ≤ 1000 nM | ≤ 1000 nM
7 | C[C@H](NC(=O)c1ccc2c(c1)c1csnc1c(=O)n2-c1ccc(C(F)(F)F)cc1)c1ccccn1 [Example T-328] | ≤ 1000 nM | ≤ 1000 nM
8 | C[C@H](NC(=O)c1cnc2c(c1)c1ccoc1c(=O)n2-c1ccc(C(F)(F)F)cc1)c1ccccn1 [Example T-400] | ≤ 1000 nM | ≤ 1000 nM
9 | C[C@H](NC(=O)c1ccc2c(c1)c1c(c(=O)n2-c2ccc(C(F)(F)F)cc2)CCC(F)C1)c1ccccn1 (stereo partly drawn) [Example T-303] | ≤ 1000 nM | ≤ 1000 nM
10 | COC(=O)c1ccc2c(c1)c1ncn(C)c1c(=O)n2-c1ccc(C(F)(F)F)cc1 [Example T-99] | 1000 to 5000 nM | 1000 to 5000 nM
11 | COc1ccnc([C@@H](C)NC(=O)c2ccc3c(c2)c2nn(C)cc2c(=O)n3-c2ccc(C(F)(F)F)cc2)c1 [Example T-136] | 1000 to 5000 nM | 1000 to 5000 nM
12 | O=C(c1ccc2c(ccc(=O)n2-c2ccc(C(F)(F)F)cc2)c1)N1CC(O)C1 [Example T-22] | 1000 to 5000 nM | 1000 to 5000 nM
13 | C[C@H](NC(=O)c1ccc2c(c1)c1c(c(=O)n2C2CCC(F)(F)CC2)CCC1)c1ccccn1 [Example T-266] | ≤ 1000 nM | ≤ 1000 nM
14 | Cc1scc2c1c(=O)n(-c1ccc(C(F)(F)F)cc1)c1ccc(C(=O)N[C@@H](C)c3ccccn3)cc21 [Example T-297] | ≤ 1000 nM | ≤ 1000 nM
15 | Cc1scc2c(=O)n(-c3ccc(C(F)(F)F)cc3)c3ccc(C(=O)N[C@@H](C)c4ccccn4)nc3c12 [Example T-385] | ≤ 1000 nM | ≤ 1000 nM
16 | CC1CCc2c1c1cc(C(=O)N[C@@H](C)c3ccccn3)ccc1n(-c1ccc(C(F)(F)F)cc1)c2=O (stereo partly drawn) [Example T-445] | ≤ 1000 nM | ≤ 1000 nM
17 | Cn1cc2c(=O)n(-c3ccc(C(F)(F)F)cc3)c3ccc(C(N)=O)cc3c2n1 [Example T-114] | 1000 to 5000 nM | ≤ 1000 nM
18 | C[C@H](NC(=O)c1ccc2c(c1)c1c(c(=O)n2-c2ccc(C(F)(F)F)cc2)CN(Cc2ccccc2)C1)c1ccccn1 [Example T-251] | 1000 to 5000 nM | 1000 to 5000 nM
19 | COC[C@H](C)NC(=O)c1ccc2c(c1)-c1ncn(C)c1CN2c1ccc(C(F)(F)F)cc1 [Example T-16] | ≤ 1000 nM | ≤ 1000 nM
20 | C[C@H](NC(=O)c1cnc2c(c1)c1ccccc1c(=O)n2-c1ccc(C(F)(F)F)cc1)c1cccc(N)n1 [Example T-437] | ≤ 1000 nM | ≤ 1000 nM
21 | C[C@H](NC(=O)c1ccc2c(c1)c(=O)ccn2-c1ccc(C(F)(F)F)cc1)c1ccccn1 [Example T-17] | ≤ 1000 nM | 1000 to 5000 nM
22 | C[C@H](NC(=O)c1cnc2c(c1)c1cscc1c(=O)n2-c1ccc(C(F)(F)F)cc1)c1ccccn1 [Example T-246] | ≤ 1000 nM | ≤ 1000 nM
23 | C[C@H](NC(=O)c1ccc2c(c1)c1ncccc1c(=O)n2-c1ccc(C(F)(F)F)cc1)c1cccc(N)n1 [Example T-419] | ≤ 1000 nM | ≤ 1000 nM
24 | C=CC(=O)Nc1ccc2c(c1)c1nn(C)cc1c(=O)n2-c1ccc(C(F)(F)F)cc1 [Example T-172] | ≤ 1000 nM | ≤ 1000 nM

The remaining lines, values ahead:

Row | IC50 (YAP-TEAD) | IC50 [1] | Structure (SMILES)
25 | ≤ 1000 nM | ≤ 1000 nM | C[C@H](NC(=O)c1ccc2c(n1)c1cocc1c(=O)n2-c1ccc(C(F)(F)F)cc1)c1ccccn1 [Example T-389]
26 | ≤ 1000 nM | ≤ 1000 nM | C[C@H](NC(=O)c1ccc2c(c1)c1nn(C)cc1c(=O)n2-c1ccc(C(F)(F)F)cc1)c1cccc(C#N)n1 [Example T-152]
27 | ≤ 1000 nM | ≤ 1000 nM | C[C@H](NC(=O)c1ccc2c(c1)c1ccccc1c(=O)n2-c1ccc(C(F)(F)F)cn1)c1ccccn1 [Example T-248]
28 | ≤ 1000 nM | ≤ 1000 nM | C[C@H](NC(=O)c1ccc2c(c1)c1cocc1c(=O)n2-c1ccc(C(F)(F)F)cc1)c1ccccn1 [Example T-286]
29 | ≤ 1000 nM | ≤ 1000 nM | CC(C)NC(=O)c1ccc2c(c1)c(=O)ccn2-c1ccc(C(F)(F)F)cc1 [Example T-6]
30 | ≤ 1000 nM | ≤ 1000 nM | Cc1cc2c(=O)n(-c3ccc(C(F)(F)F)cc3)c3ncc(C(=O)N[C@@H](C)c4ccccn4)cc3c2s1 [Example T-404]
31 | 1000 to 5000 nM | 1000 to 5000 nM | C[C@H](NC(=O)c1ccc2c(c1)c1nn(C)cc1c(=O)n2-c1ccc(C(F)(F)F)cc1)c1ccc(F)cn1 [Example T-144]
32 | ≤ 1000 nM | ≤ 1000 nM | C[C@H](NC(=O)c1ccc2c(c1)c1csc(Cl)c1c(=O)n2-c1ccc(C(F)(F)F)cc1)c1ccccn1 [Example T-300]
33 | 1000 to 5000 nM | 1000 to 5000 nM | C[C@H](NC(=O)c1ccc2c(c1)c1nn(C)cc1c(=O)n2-c1ccc(C(F)(F)F)cc1)c1cccc(Cl)n1 [Example T-132]
34 | ≤ 1000 nM | ≤ 1000 nM | Cn1cc2c(=O)n(-c3ccc(C(F)(F)F)cc3)c3ccc(C(=O)NC(C)(C)C)cc3c2n1 [Example T-101]
35 | ≤ 1000 nM | ≤ 1000 nM | C[C@H](NC(=O)c1ccc2c(c1)c1nn(C)cc1c(=O)n2Cc1ccc(C(F)(F)F)cc1)c1ccccn1 [Example T-270]
36 | ≤ 1000 nM | ≤ 1000 nM | C[C@H](NC(=O)c1ccc2c(n1)c1ccccc1c(=O)n2-c1ccc(C(F)(F)F)cc1)c1ccccn1 [Example T-403]
37 | 1000 to 5000 nM | 1000 to 5000 nM | N#CC1CN(C(=O)c2ccc3c(c2)c(=O)ccn3-c2ccc(C(F)(F)F)cc2)C1 [Example T-38]
38 | ≤ 1000 nM | ≤ 1000 nM | C[C@H](NC(=O)c1ccc2c(c1)c1ncsc1c(=O)n2-c1ccc(C(F)(F)F)cc1)c1ccccn1 [Example T-330]
39 | ≤ 1000 nM | ≤ 1000 nM | C[C@H](NC(=O)c1ccc2c(c1)c1nn(C)cc1c(=O)n2-c1ccc(C(F)(F)F)cc1)c1cccc(F)n1 [Example T-153]
40 | ≤ 1000 nM | ≤ 1000 nM | C[C@H](NC(=O)c1ccc2c(c1)c1c(c(=O)n2-c2ccc(C(F)(F)F)cc2)CCC1(F)F)c1ccccn1 [Example T-293]
41 | ≤ 1000 nM | ≤ 1000 nM | C[C@H](NC(=O)c1ccc2c(c1)c1nn(C)cc1c(=O)n2-c1ccc(OC(F)(F)F)cc1)c1ccccc1 [Example T-230]

Row | IC50 (YAP-TEAD) | IC50 [1] | Structure (SMILES)
42 | ≤ 1000 nM | ≤ 1000 nM | C[C@H](NC(=O)c1ccc2c(c1)-c1nn(C)cc1[C@@H](C)N2c1ccc(C(F)(F)F)cc1)c1ccccn1 [Example T-326]
43 | ≤ 1000 nM | ≤ 1000 nM | C[C@H](NC(=O)c1ccc2c(c1)c1cc(F)ccc1c(=O)n2-c1ccc(C(F)(F)F)cc1)c1ccccn1 [Example T-259]
44 | ≤ 1000 nM | ≤ 1000 nM | CNS(=O)(=O)c1ccc2c(c1)c1nn(C)cc1c(=O)n2-c1ccc(C)cc1 [Example T-82]
45 | ≤ 1000 nM | ≤ 1000 nM | CNS(=O)(=O)c1ccc2c(c1)c1nc[nH]c1c(=O)n2-c1ccc(C(F)(F)F)cc1 [Example T-33]
46 | ≤ 1000 nM | ≤ 1000 nM | C[C@H](NC(=O)c1ccc2c(c1)c1c(c(=O)n2-c2ccc(C(F)(F)F)cc2)CCCC1F)c1ccccn1 (stereo partly drawn) [Example T-302]
47 | ≤ 1000 nM | ≤ 1000 nM | Cn1cc2c(=O)n(-c3ccc(C(F)(F)F)cc3)c3ccc(C(=O)NCc4ccccn4)cc3c2n1 [Example T-113]
48 | ≤ 1000 nM | ≤ 1000 nM | CNC(=O)Nc1ccc2c(c1)c1nn(C)cc1c(=O)n2-c1ccc(C(F)(F)F)cc1 [Example T-181]
49 | ≤ 1000 nM | ≤ 1000 nM | CNS(=O)(=O)c1ccc2c(c1)c1cscc1c(=O)n2-c1ccc(C(F)(F)F)cc1 [Example T-265]
50 | ≤ 1000 nM | ≤ 1000 nM | C=C(C)C(=O)Nc1ccc2c(c1)c1nn(C)cc1c(=O)n2-c1ccc(C(F)(F)F)cc1 [Example T-236]
51 | ≤ 1000 nM | ≤ 1000 nM | CNS(=O)(=O)c1ccc2c(c1)-c1ncn(C)c1CN2Cc1ccc(C(F)(F)F)cc1 [Example T-49]
52 | ≤ 1000 nM | ≤ 1000 nM | CC#CC(=O)Nc1ccc2c(c1)c1nn(C)cc1c(=O)n2-c1ccc(C(F)(F)F)cc1 [Example T-238]
53 | ≤ 1000 nM | ≤ 1000 nM | C[C@H](NC(=O)c1ccc2c(c1)c1nn(C)cc1c(=O)n2-c1ccc(C(F)(F)F)cc1)c1ccccc1 [Example T-138]
54 | ≤ 1000 nM | ≤ 1000 nM | CNS(=O)(=O)c1ccc2c(c1)c1ncn(C)c1c(=O)n2-c1ccccc1 [Example T-60]
55 | 1000 to 5000 nM | 1000 to 5000 nM | COc1ccnc([C@H](C)NC(=O)c2ccc3c(c2)c2nn(C)cc2c(=O)n3-c2ccc(C(F)(F)F)cc2)c1 [Example T-143]
56 | ≤ 1000 nM | ≤ 1000 nM | CNS(=O)(=O)c1ccc2c(c1)c1cn(C)nc1c(=O)n2-c1ccc(F)c(F)c1 [Example T-66]
57 | ≤ 1000 nM | ≤ 1000 nM | Cc1ccc2c(=O)n(-c3ccc(C(F)(F)F)cc3)c3ncc(C(=O)N[C@@H](C)c4ccccn4)cc3c2c1 [Example T-408]
